Values joined by “and” are separate entries in the source; they are usually repeats but may differ in a detail not shown here. Identical values can stand only once.
Assays:
Aurelia ephyra [1] = test: Arm regeneration induction in amputated Aurelia ephyrae; type: in vivo, Aurelia aurita; conditions: for effect on arm regeneration / regeneration frequency (in words): amputated ephyrae, factor added to artificial seawater upon amputation; for Percent regeneration, Average: average over experiments; for Effect size, Length of arm regenerates: Response Ratio treated vs control (Table 7); for Average effect size: Risk Ratio of regeneration frequency, across experiments (Table 4); for Average effect size / Odds Ratio: treated vs control; for Effect size, % ephyrae regenerating / Effect size, % ephyrae regenerating >1 arm / Effect size, % ephyrae regenerating rhopalia: Risk Ratio treated vs control (Table 7); for Odds Ratio: odds of regeneration, across experiments (Table 6)
Description: Amputation. Strobilated ephyrae were fed daily with rotifers (Brachionus plicatilis) until amputation time. 2-3 days old ephyrae were anesthetized in 400 μM menthol and amputated using a razor blade mounted on an x-acto knife handle. After amputation, ephyrae were let to recover in bubbler cones (FIG. 7). Regeneration was assessed at various times until 1-2 weeks after amputation, before onset of maturation to medusa.
Inducing regeneration. Experimental setup. 0.5-1 L sand settling cones were repurposed as jellyfish aquaria (Nalgene Imhoff; FIG. 7). Each cone was equipped with an airline from a Tetra Whisper air pump 100 to create a gentle vertical current (˜1 bubble/sec, see FIG. 30). The conical geometry eliminates stagnant spots, where the ephyrae could get stuck. In this “bubbler cone” setup, the ephyrae were continually in water current either in the upward air bubble-generated current or the downward self-generated current. 500 mL artificial seawater and 30 ephyrae were placed in each cone to avoid crowding and fouling. Artificial seawater was changed every week. Nutrients. In some embodiments, the food amount given here only serves as an initial estimate; percentage of regeneration can easily vary with lab culture condition (e.g., polyp and rotifer size, age, health), as well as subject to variation across polyps and strobilation batches (see Table 2A-Table 2C for a sense of the variation). Amputated ephyrae were fed daily with rotifers. The number of rotifers administered daily was estimated using a 6-well plate fitted with STEMgrid™ (the same principle as using a hemocytometer). In some embodiments, low food is ˜100-200 rotifers/ephyra, whereas high food is ˜400 rotifers/ephyra. Insulin. Human recombinant insulin was administered to the amputated ephyrae at 500 nM immediately after amputation (by mixing in the artificial seawater). If the experiment proceeds longer than a week, fresh insulin was added at the one-week time point. Hypoxia. Nitrogen or argon flow, instead of ambient air flow, was introduced via the airline into the bubbler cone immediately after amputation, and maintained throughout the duration of the experiment. The nitrogen flow was adjusted to achieve 50% reduction in the dissolved oxygen level.
Inhibiting or activating mTOR. 1 nM Sapanisertib (Selleck Chemicals S2811), 1 μM A769662 (Santa Cruz sc-203790), or 100 μM L-leucine (Sigma L1002, the cell-permeable methyl ester hydrochloride form) was administered into the artificial seawater right after amputation, and refreshed weekly. Statistical analysis. Percent regeneration was first normalized to the control (for sapanisertib and A769662, the HF+DMSO control; for leucine data the LF control), and then the student's t-test (two tailed, equal variances) in Excel was used to test the null hypothesis that the fold change in % regeneration is zero. Drosophila melanogaster
Amputation. Strobilated ephyrae were fed daily with rotifers (Brachionus plicatilis, Reed Mariculture) until amputation time. 2-3 days old ephyrae were anesthetized in 400 μM menthol and amputated using a razor blade mounted on an x-acto knife handle. After amputation, ephyrae were let to recover in bubbler cones (FIG. 21). Regeneration was assessed at various times for 1-2 weeks after amputation, before onset of maturation to medusa. Experiment in the original habitat. The polyp population in the study arose from parental polyps collected off the coast of Long Beach, Calif. (33° 46′04.2″N 118° 07′44.2″W, GPS: 33.7678376,−118.1289559). Ephyrae were amputated in location and immediately after submersed in the ocean. For submerging the amputated ephyrae in the ocean, a two-layered aquarium was custom-built. Ephyrae were placed in plastic canisters with a 7 cm diameter hole cut in the lid and covered with a 250 μm plastic screen. The canisters were then placed in a thick plastic tank fitted with a 500 μm plastic screen on top. […]

Aurelia ephyra [2] = test: as above; type: in vivo, Aurelia aurita; conditions: low food (LF) background; single experiments; arm regeneration 1-2 weeks after amputation; insulin 500 nM, L-leucine 100 μM / 100 mM, nitrogen flow ~50% reduction in oxygen
Aurelia ephyra [3] = test: Body size (growth) of amputated Aurelia ephyrae; type: in vivo, Aurelia aurita; conditions: Response Ratio across experiments (Table 8)
Description: Two-to-three-day-old ephyrae were anesthetized in 400 μM menthol and amputated using a razor blade mounted on an x-acto knife handle. Amputated ephyrae were let to recover in 1 L sand settling cones (Nalgene Imhoff, FIG. 21). In each experiment, ˜90 animals were amputated for each condition (e.g., 90 animals for control and 90 animals for treated). Because of the varying baseline across strobilation batches, each experiment was repeated across 2-5 strobilation batches (biological replicates). These sample sizes were chosen to obtain a 95% confidence level on the treatment effect (statistical analysis described below). Hundreds of experimental animals were first amputated, mixed together in a beaker, and then randomly allocated to the control or treatment groups. Regeneration was assessed at various times for 1-2 weeks after amputation, before onset of maturation to medusa. All data were included in the analysis.
For measurements of arm length and body size, the datasets are in the form of continuous variables. For such data, the commonly used effect size is the Response Ratio (R, EQUATION 3),
R evaluates the proportionate change that results from a treatment, and is the meaningful effect size to use when the outcome of a treatment is measured on a physical scale, e.g., length or area (as opposed to arbitrary scale, e.g., happiness level). […]

Drosophila limb = test: Tibia (hindlimb) regeneration in amputated adult Drosophila; type: in vivo, Drosophila melanogaster; conditions: adult flies, fed in food
Description: Amputation. Adult flies 2-7 days after eclosion were anesthetized with CO2. Amputations were performed under a dissection microscope using a spring scissors (Fine Science Tools, 91500-09) and superfine dissecting forceps (VWR, 82027-402). Recovering Drosophila were fed with standard fly food (control) or standard fly food supplemented with 2 mM L-leucine (Sigma L8000), 2 mM L-Glutamine (Sigma G3126), and 0.1 mg/mL insulin (MP Biomedicals 0219390080) or other molecular factors. To introduce molecular factors into fly food, standard fly food was microwaved in short pulses, such that the topmost layer of the food was liquified. Molecular factors in aqueous medium were then pipetted into this liquified layer. Food was allowed to re-set at 4° C. for at least 20 minutes. New food was prepared fresh every 2 days throughout the course of the 2-week experiment. Regeneration was assessed at 3, 6, 9 and 14 days post amputation.
Drosophila were amputated on the hindlimb, across the fourth segment of the leg, the tibia (FIG. 16A-FIG. 16C). The amputation removed the distal half to third of the tibia and all tarsal segments. […] Regeneration was assessed between 7-21 dpa as the presence of a regrown tibia with a reformed distal joint (FIG. 16E). […]

[4] = high food (HF) background, single experiments, insulin 500 nM, 1 nM sapanisertib, 1 μM A769662 (controls HF + DMSO), nitrogen or argon flow ~50% reduction in oxygen

## N#Cc1c(O)c2c(-c3ccc(-c4ccccc4O)cc3)csc2[nH]c1=O [A769662, reference compound]
Aurelia ephyra [1]
  effect on arm regeneration / regeneration frequency (in words): inhibited arm regeneration
Aurelia ephyra [1]; high food (HF) background
  Percent regeneration, Average: 8.3%
Aurelia ephyra [1]; [4]
  Percent regeneration: 9.8% and 7.0%

## CC(C)n1nc(-c2ccc3oc(N)nc3c2)c2c(N)ncnc21 [Sap, Sapanisertib, reference compound]
Aurelia ephyra [1]; high food (HF) background
  Percent regeneration, Average: 11.5%

## N#N [nitrogen]
Aurelia ephyra [1]; LF* background, single experiment, nitrogen flow
  Percent regeneration: 28.4%
Aurelia ephyra [1]; high food (HF) background
  Percent regeneration, Average: 69.3%
Aurelia ephyra [1]; [4]
  Percent regeneration: 82.1% and 56.9%
Aurelia ephyra [1]; low food (LF) background
  Percent regeneration, Average: 30.6%
Aurelia ephyra [2]
  Percent regeneration: 32.5%

## Tgfb: protein tested in the screen (hTGF-β1, Peprotech 100-21)
Aurelia ephyra [1]
  effect on arm regeneration / regeneration frequency (in words): no effect

## CC(C)C[C@H](N)C(=O)O [Leucine, L-leucine]
Aurelia ephyra [1]
  Effect size, Length of arm regenerates: 1.7
  Average effect size: 4.1
  Effect size, % ephyrae regenerating: 4.1
  Effect size, % ephyrae regenerating >1 arm: 6.0
  Effect size, % ephyrae regenerating rhopalia: 6.1
  effect on arm regeneration / regeneration frequency (in words): induced arm regeneration
  Odds Ratio: 5.8
Aurelia ephyra [1]; low food (LF) background
  Percent regeneration, Average: 23.0%
Aurelia ephyra [3]
  Ave. body diameter treatment/control: 1.1
Drosophila limb
  effect on tibia regrowth (in words): can by itself effect tibia regrowth

## [Ar] [argon]
Aurelia ephyra [1]
  effect on arm regeneration / regeneration frequency (in words): dramatically induced regeneration
Aurelia ephyra [1]; [4]
  Percent regeneration: 72.5%

## Insulin: human recombinant insulin (Sigma I0908), 500 nM in artificial seawater
Aurelia ephyra [1]
  Effect size, Length of arm regenerates: 1.2
  Average effect size: 2.4
  Effect size, % ephyrae regenerating: 2.4
  Effect size, % ephyrae regenerating >1 arm: 1.9
  Effect size, % ephyrae regenerating rhopalia: 1.3
  Odds Ratio: 5.0
Aurelia ephyra [1]; [4]
  Percent regeneration: 36.4%
Aurelia ephyra [3]
  Ave. body diameter treatment/control: 1.4
Aurelia ephyra [2]
  Percent regeneration: 25%

Reference: patent publication US20220016127A1, “COMPOSITIONS AND METHODS FOR INDUCING APPENDAGE AND LIMB REGENERATION” (priority 2020, published 2022)
